Assay results reported in ChEMBL document CHEMBL1201862, “PubChem BioAssay data set” (2004).
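Interpolation was linear, between the two tested concentrations surrounding the appropriate level; five concentrations were tested over 48 hours in 96-well plates. The concentration for 50% growth inhibition is given as GI50.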 Active and inactive are the calls of the source. No stated cut-off is given here; in the data, active = GI50 up to about 1.1 µM and inactive = higher.

Key:
Assay in all cases: NCI tumour cell line growth inhibition, 48 h
[1] = tested on: OVCAR-4
[2] = tested on: SNB-78
[3] = tested on: K562
[4] = tested on: 786-0
[5] = tested on: SW-620
[6] = tested on: SR
[7] = tested on: ACHN
[8] = tested on: NCI-H460
[9] = tested on: Malme-3M
[10] = tested on: SNB-19
[11] = tested on: IGROV-1
[12] = tested on: M14
[13] = tested on: HOP-18
[14] = tested on: U-251
[15] = tested on: KM12
[16] = tested on: UACC-257
[17] = tested on: RXF 631
[18] = tested on: HT-29
[19] = tested on: DMS-273
[20] = tested on: SK-MEL-2
[21] = tested on: HOP-92
[22] = tested on: CAKI-1
[23] = tested on: SF-539
[24] = tested on: SK-OV-3
[25] = tested on: HOP-62
[26] = tested on: SF-295
[27] = tested on: CCRF-CEM
[28] = tested on: EKVX
[29] = tested on: A498
[30] = tested on: NCI-H522
[31] = tested on: LOX IMVI
[32] = tested on: A549
[33] = tested on: MOLT-4
[34] = tested on: UO-31
[35] = tested on: HCT-116
[36] = tested on: M19-MEL
[37] = tested on: HL-60
[38] = tested on: UACC-62
[39] = tested on: DLD-1
[40] = tested on: SF-268
[41] = tested on: OVCAR-3
[42] = tested on: RXF 393
[43] = tested on: OVCAR-5
[44] = tested on: LXFL 529
[45] = tested on: SK-MEL-5
[46] = tested on: TK-10
[47] = tested on: HCT-15
[48] = tested on: NCI-H23
[49] = tested on: DMS-114
[50] = tested on: COLO 205
[51] = tested on: SNB-75
[52] = tested on: SK-MEL-28
[53] = tested on: OVCAR-8
[54] = tested on: SN12C
[55] = tested on: XF498

In the case of `C=CC1(C)/C(=N\O)C(C)(CC)C(=O)N1O` (stereo not given), the GI50 [1] is reported as > 100 µM (inactive), the GI50 [2] is reported as > 100 µM (inactive) and the GI50 [3] is reported as > 100 µM (inactive). For the same compound, the GI50 [4] was > 100 µM (inactive), the GI50 [5] was > 100 µM (inactive) and the GI50 [6] was > 100 µM (inactive). For the same compound, the GI50 [7] was > 100 µM (inactive), the GI50 [8] was > 100 µM (inactive) and the GI50 [9] was > 100 µM (inactive). The GI50 [10] was > 100 µM (inactive), the GI50 [11] was > 100 µM (inactive) and the GI50 [12] was > 100 µM (inactive). The GI50 [13] was > 100 µM (inactive), the GI50 [14] was > 100 µM (inactive) and the GI50 [15] was > 100 µM (inactive). For the same compound, the GI50 [16] was > 100 µM (inactive), the GI50 [17] was > 100 µM (inactive) and the GI50 [18] was > 100 µM (inactive). For the same compound, the GI50 [19] was > 100 µM (inactive), the GI50 [20] was > 100 µM (inactive) and the GI50 [21] was > 100 µM (inactive). For the same compound, the GI50 [22] was > 100 µM (inactive), the GI50 [23] was > 100 µM (inactive) and the GI50 [24] was > 100 µM (inactive). The GI50 [25] was > 100 µM (inactive), the GI50 [26] was > 100 µM (inactive) and the GI50 [27] was > 100 µM (inactive). The GI50 [28] was > 100 µM (inactive), the GI50 [29] was > 100 µM (inactive) and the GI50 [30] was > 100 µM (inactive). For the same compound, the GI50 [31] was > 100 µM (inactive), the GI50 [32] was > 100 µM (inactive) and the GI50 [33] was > 100 µM (inactive). The GI50 [34] was > 100 µM (inactive), the GI50 [35] was > 100 µM (inactive) and the GI50 [36] was > 100 µM (inactive). The GI50 [37] was > 100 µM (inactive), the GI50 [38] was > 100 µM (inactive) and the GI50 [39] was > 100 µM (inactive). For the same compound, the GI50 [40] was > 100 µM (inactive), the GI50 [41] was > 100 µM (inactive) and the GI50 [42] was > 100 µM (inactive). For the same compound, the GI50 [43] was > 100 µM (inactive), the GI50 [44] was > 100 µM (inactive) and the GI50 [45] was > 100 µM (inactive). The GI50 [46] was > 100 µM (inactive), the GI50 [47] was greater than 100 µM and the GI50 [48] was > 100 µM (inactive). The GI50 [49] was > 100 µM (inactive), the GI50 [50] was > 100 µM (inactive) and the GI50 [51] was > 100 µM (inactive). The GI50 [52] was > 100 µM (inactive), the GI50 [53] was > 100 µM (inactive) and the GI50 [54] was > 100 µM (inactive). For the same compound, the GI50 [55] was > 100 µM (inactive).
